Holding throughout (experiment): growth of human tumour cells (NCI), 48 h
For assay [1], the system named is SK-MEL-28 melanoma.
The subject of assay [2] is OVCAR-8 ovarian.
Assay [3] has as its system HOP-62 NSCLC.
Assay [4] concerns MALME-3M melanoma.
For assay [5], the system named is OVCAR-5 ovarian.
The subject of assay [6] is SN12C renal.
Assay [7] relates to HOP-92 NSCLC.
The test system of assay [8] is HCT-116 colon.
Assay [9] deals with M14 melanoma.
In assay [10] the test system is OVCAR-4 ovarian.

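Results reflect a 48-hour exposure of cells in 96-well plates to compound at five concentrations. GI50 = concentration required for 50% inhibition of growth. TGI denotes the concentration required for complete inhibition of growth.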

The source of these data is PubChem BioAssay (NCI).

On to `COc1ccc(-c2cc(-c3ccc(Nc4nc(Nc5ccc(Cl)cc5)nc(Nc5ccc(Cl)cc5)n4)cc3)no2)cc1`, for which the GI50 was 11.7 µM in [1]; 12.6 µM in [2]; 20.5 µM in assay [3]; 20.5 µM in assay [4]; 19.1 µM in assay [5]; 20.2 µM in [6]. Besides, the GI50 was 1.91 µM in assay [7], 4.33 µM in assay [8], 16.2 µM in assay [9] and 14.7 µM in assay [10]. Also, the TGI was 41.4 µM in [1]; 55.3 µM in [2]; 60.5 µM in assay [3]; 49 µM in assay [4]; 73.5 µM in assay [5]; above 100 µM in assay [6]. Besides, the TGI in [7] was 6.26 µM; in [8], 17.1 µM; in assay [9] it was 53.7 µM; in assay [10], above 100 µM.
For `O=C1C2CC3C(CC2C(=O)[N]1[Sn]([c]1ccccc1)([c]1ccccc1)[c]1ccccc1)C1(Cl)C(Cl)=C(Cl)C3(Cl)C1(Cl)Cl` (centres undefined), the GI50 in [1] is 0.144 µM; in assay [2] it was 0.155 µM; in [3] it was 0.192 µM; in assay [4] it was 0.195 µM; in [5] it was 0.151 µM; in [6], 0.17 µM. The GI50 in [7] was 0.0529 µM; in [8], 0.0473 µM; in assay [9] it was 0.15 µM; in assay [10], 0.0781 µM. The TGI in [1] was 0.295 µM; in assay [2] it was 0.375 µM; in assay [3] it was 0.427 µM; in assay [4], 0.387 µM; in assay [5], 0.317 µM; in [6] it was 0.448 µM. Also, the TGI in assay [7] was 0.221 µM; in assay [8] it was 0.183 µM; in [9] it was 0.345 µM; in assay [10], 0.289 µM.
In the case of `COC(=O)C1=CC(O)CCC1c1ccc(OC)cc1` (centres undefined), the TGI in assay [1], in [2], in assay [3], in assay [4], in assay [5] and in assay [6] was above 100 µM each time. For the same compound, the TGI in assay [7], in assay [8], in assay [9] and in assay [10] was above 100 µM throughout.
Turning to `C[C@H]1CCC/C=C/[C@@H]2C[C@H](O)C[C@H]2[C@H](O)[C@H](S(=O)c2ccc(O)cc2)CC(=O)O1` (some centres undefined), the GI50 in assay [1] was 0.0316 µM; in assay [2] it was below 0.0167 µM; in assay [3], 0.0855 µM; in assay [4], 0.0202 µM; in [5] it was 0.0613 µM; in assay [6] it was 0.0497 µM. Also, the GI50 was 0.0529 µM in assay [7], 0.0256 µM in assay [8], 0.033 µM in assay [9] and 0.0231 µM in assay [10]. In addition, the TGI in [1] was above 100 µM; in [2], 0.238 µM; in assay [3], above 65.6 µM; in [4], 0.0709 µM; in [6], 0.489 µM; in [7], above 100 µM. In addition, the TGI in [8] was 0.0633 µM; in assay [9] it was above 100 µM; in [10], 0.978 µM.
Take `Cc1cc(NC(=O)c2ccc(NS(=O)(=O)CCO)cc2N2CCC3(CC2)CC3)nc(N2CCC(F)(F)CC2)n1`: the GI50 in [1] was 16.8 µM; in assay [2] it was 0.114 µM; in assay [3] it was 13.7 µM; in [4], 13.9 µM; in assay [5] it was 11.4 µM; in [6], 11.7 µM. The GI50 in [7] was 14.5 µM; in [8], 11.7 µM; in [9], 14.3 µM; in assay [10], 14.2 µM. Moreover, the TGI in assay [1] is 30.7 µM; in assay [2], 24.4 µM; in [3] it was 30.4 µM; in [4] it was 27.8 µM; in assay [5], 23.6 µM; in assay [6], 24.4 µM. Also, the TGI in assay [7] was 29.6 µM; in [8], 26.8 µM; in [9], 28.9 µM; in assay [10] it was 27.7 µM.
`C=C(C)C1CC=C(C(=O)O)CC1` (centres undefined): the TGI in assay [1] is 2640 µM; in assay [2], above 5000 µM; in [3], 1770 µM; in assay [4], 1630 µM; in [5], above 5000 µM; in assay [6], above 5000 µM. Also, the TGI in [7] is 3930 µM; in assay [8], 1500 µM; in assay [9], above 5000 µM; in [10] it was above 5000 µM.
As to `COc1cc(N2CCC(N3CCN(C)CC3)CC2)ccc1Nc1ncc(Cl)c(Nc2ccccc2P(C)(C)=O)n1`, the GI50 was 18.5 µM in assay [1]; 5.05 µM in [2]; 0.797 µM in assay [3]; 7.66 µM in assay [4]; 0.379 µM in assay [5]; 1.03 µM in [6]. In addition, the GI50 was 0.4 µM in assay [7], 1.09 µM in [8], 2.12 µM in assay [9] and 1.3 µM in [10]. Further, the TGI in assay [1] is above 100 µM; in assay [2], above 100 µM; in [3], above 32 µM; in assay [4], above 100 µM; in assay [5], above 100 µM; in [6], above 100 µM. Also, the TGI in [7] is 2.41 µM; in assay [8] it was 13.3 µM; in assay [9], above 34 µM; in assay [10], above 47.6 µM.
Turning to `O=S(=O)(NCCNc1cc(-c2cn(-c3ccccc3)nc2-c2cccc(O)c2)ccn1)c1ccc(C(F)(F)F)cc1`, the GI50 is 2.71 µM in [1]; 4.91 µM in assay [2]; 2.56 µM in assay [3]; 1.68 µM in assay [4]; 2.53 µM in assay [5]; 2.31 µM in [6]. Further, the GI50 was 1.97 µM in assay [7], 2.29 µM in [8], 2.12 µM in assay [9] and 2.85 µM in assay [10]. Further, the TGI in [1] is 9.83 µM; in assay [2], 26.1 µM; in [3] it was 9.14 µM; in assay [4], 4.57 µM; in [5] it was 13.7 µM; in assay [6], 5.49 µM. Moreover, the TGI in assay [7] was 6.39 µM; in assay [8], 7.94 µM; in [9], 7.17 µM; in [10], 16.9 µM.
